The source of these data is article PMC12482674 (Alzheimer's Research & Therapy, 2025).

Where a name gives a salt, the structure may show the parent alone. Where only a bound is given, the exact number is not on record here.

For assay [1], the target named is AD brain-derived tau seeds (Homo sapiens, UniProt P10636, C639S). Nature of the assay: biochemical. Type of assay: biochemical. The note with it: for percent inhibition (vehicle AUC 100% minus percent AUC of compound): 100 µM; for inhibition at 100 µM: read-out: percent inhibition (vehicle AUC 100% minus percent AUC of compound).
Assay [2] addresses tau (Homo sapiens, UniProt P10636, C639S). Nature of the assay: Transmission electron microscopy of Tau-SAA end products. Type of assay: biochemical. As to conditions: SAA end products (total fraction) of 100 µM reactions.
For assay [3] the following is noted: Phase III; cited from earlier work.
The test system of assay [4] is tau oligomers. The note with it: mouse models; cited from earlier work.
Assay [5] concerns hyperphosphorylated tau. The note with it: mouse, in vivo; cited from earlier work.
The test system of assay [6] is 2N4R. As to conditions: cited from earlier work.
For assay [7] the following is noted: patients receiving the drug; cited from earlier work.
Assay [8] has as its system tau peptides. The note with it: cited from earlier work.

Sequence of AD brain-derived tau seeds (P10636 1-352 isoform P10636-2 C233S): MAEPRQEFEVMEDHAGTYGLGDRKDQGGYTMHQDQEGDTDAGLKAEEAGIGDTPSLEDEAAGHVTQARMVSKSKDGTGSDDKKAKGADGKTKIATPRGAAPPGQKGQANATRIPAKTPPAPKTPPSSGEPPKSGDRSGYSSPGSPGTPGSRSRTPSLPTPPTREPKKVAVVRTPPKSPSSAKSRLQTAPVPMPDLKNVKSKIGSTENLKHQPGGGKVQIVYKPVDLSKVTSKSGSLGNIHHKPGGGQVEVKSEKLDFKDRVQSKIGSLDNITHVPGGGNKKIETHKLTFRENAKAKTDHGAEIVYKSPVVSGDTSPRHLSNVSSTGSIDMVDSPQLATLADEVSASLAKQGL
Sequence of tau (P10636 1-352 isoform P10636-2 C233S): as above

For the compound `Oc1cc(O)c2c(c1)O[C@H](c1ccc(O)c(O)c1)[C@@H](O)C2` [(+)-catechin], the “percent inhibition (vehicle AUC 100% minus percent AUC of compound)” value in assay [1] was determined as 89%.

With `CN(C)c1ccc2nc3ccc(N)cc3[s+]c2c1.[Cl-]` [Azure A, azure A], in assay [1], the “maximum thioflavin fluorescence (ThT Max)” value was “approaching the baseline” and the “percent inhibition (vehicle AUC 100% minus percent AUC of compound)” value was above 95%.

One may read the inhibition as the relative decrease from the control value, in per cent. On to `Nc1c(/N=N/c2ccc(-c3ccc(/N=N/c4cc(S(=O)(=O)O)c5ccccc5c4N)cc3)cc2)cc(S(=O)(=O)O)c2ccccc12` [Congo Red, Congo red], for which, in assay [1], the “maximum thioflavin fluorescence (ThT Max)” value is recorded as “approaching the baseline” and the inhibition at 100 µM was above 95%.

What is called IC50 is the concentration that inhibits the measured activity by half. Higher therefore signals a need for much substance. Turning to `COc1cccc2c1C(=O)c1c(O)c3c(c(O)c1C2=O)C[C@@](O)(C(=O)CO)C[C@@H]3O[C@H]1C[C@H](N)[C@@H](O)[C@H](C)O1` [Epirubicin], in assay [1], the 50% inhibitory concentration (IC50) is 6.6 µM and the inhibition at 100 µM is above 99%.

Turning to `O=C(c1cc(O)c(O)c(O)c1)c1ccc(O)c(O)c1O` [Exifone], in assay [1], the concentration for half-maximal inhibition (IC50) came out at 11.2 µM and the inhibition at 100 µM was above 95%.

As to `COc1ccc2c(c1)c(CC(=O)O)c(C)n2C(=O)c1ccc(Cl)cc1` [Indomethacin], the “aggregates seen by TEM” value in assay [2] is reported as “widespread amyloid-like aggregates”.

`CN(C)c1ccc2c(c1)Sc1cc(N(C)C)ccc1N2.CS(=O)(=O)O.CS(=O)(=O)O` [LMTX]: in assay [3], the primary efficacy outcomes is recorded as “did not reach primary efficacy outcomes”.

As to `CN(C)c1ccc2nc3ccc(=[N+](C)C)cc-3sc2c1` [Methylene Blue], the inhibition at 100 µM in assay [1] was above 99%.

Turning to `O=S(=O)(O)c1cc(S(=O)(=O)O)c2c(/N=N/c3ccccc3)c(O)ccc2c1` [Orange-G], the inhibition at 100 µM in assay [1] was 39%.

Regarding `CO[C@H]1/C=C/O[C@@]2(C)Oc3c(C)c(O)c4c(O)c(c(/C=N/N5CCN(C)CC5)c(O)c4c3C2=O)NC(=O)/C(C)=C\C=C\[C@H](C)[C@H](O)[C@@H](C)[C@@H](O)[C@@H](C)[C@H](OC(C)=O)[C@@H]1C` [Rifampin], the “spread of tau oligomers and cognitive function” value in assay [4] is “limit the spread of tau oligomers and improve cognitive function”. In addition, the “aggregates seen by TEM” value in assay [2] is given as “devoid of fibrillar amyloid structures”.

As for `CCN(CC)CCNC(=O)c1c(C)[nH]c(/C=C2\C(=O)Nc3ccc(F)cc32)c1C` [Sunitinib], the inhibition at 100 µM in assay [1] amounted to 98.6%. Also, in assay [2], the “aggregates seen by TEM” value is “widespread amyloid-like aggregates”.

`Nc1ccc2nc3ccc(N)cc3[s+]c2c1` [Thionin, thionin]: in assay [1], the “maximum thioflavin fluorescence (ThT Max)” value is “approaching the baseline” and the “percent inhibition (vehicle AUC 100% minus percent AUC of compound)” value is reported as “over 99%”.

In the case of `Brc1cccc(-c2cc(-c3ccc4c(c3)OCO4)[nH]n2)c1` [anle138b], the inhibition at 100 µM in assay [1] is -25.9%. In assay [5], the “hyperphosphorylated tau burden and survival” value is “reduces hyperphosphorylated tau burden and prolongs survival”. Further, the “inhibition of spontaneous 2N4R aggregate formation” value in assay [6] is given as “inhibits the in vitro formation of spontaneous 2N4R aggregates”.

For `CNc1ccc2nc3ccc(=[N+](C)C)cc-3sc2c1.[Cl-]` [azure B], the “percent inhibition (vehicle AUC 100% minus percent AUC of compound)” value in assay [1] was above 95%.

`CNc1ccc2nc3ccc(N)cc3[s+]c2c1` [azure C]: the inhibition at 100 µM in assay [1] was above 95%.

In the case of `O=c1cc(-c2ccccc2)oc2cc(O)c(O)c(O)c12` [baicalein], the inhibition at 100 µM in assay [1] was above 95%.

Regarding `COc1cc(/C=C/C(=O)CC(=O)/C=C/c2ccc(O)c(OC)c2)ccc1O` [curcumin], in assay [7], the cognitive outcome is “improvements in attention, long-term retrieval, and visual memory”; the “tau and Aβ burden by PET ligand binding” value is “decreased tau and Aβ burden”.

Take `C=CCc1ccc(O)c(-c2ccc(O)c(CC=C)c2)c1` [honokiol]: the inhibition at 100 µM in assay [1] came out at 94%.

Take `O=c1c(O)c(-c2cc(O)c(O)c(O)c2)oc2cc(O)cc(O)c12` [myricetin]: the inhibition at 100 µM in assay [1] is above 95%.

`CCN(CC)CCCC(C)Nc1c2ccc(Cl)cc2nc2ccc(OC)cc12` (stereo not drawn) [quinacrine hydrochloride]: in assay [1], the “maximum thioflavin fluorescence (ThT Max)” value is listed as “reduced ThT Max across all dilutions” and the “time to threshold (TTT)” value is recorded as “only delay TTT at higher dilutions”.

For `O=C(/C=C/c1ccc(O)c(O)c1)O[C@H](Cc1ccc(O)c(O)c1)C(=O)O` [rosmarinic acid], in assay [1], the inhibition at 100 µM is above 95%.

With `Cc1ccc(C(=O)c2cc(O)c(O)c([N+](=O)[O-])c2)cc1` [tolcapone], in assay [1], the inhibition at 100 µM stood at 78%.

For `CC[C@@]1(O)C(=O)OCc2c1cc1n(c2=O)Cc2cc3c(CN(C)C)c(O)ccc3nc2-1` [topotecan], the inhibition at 100 µM in assay [1] worked out at 92%. Moreover, the “inhibition of fibrillization of tau peptides” value in assay [8] is reported as “only mildly inhibited”.

For the compound `CC(=O)c1c(O)c(C)c(O)c2c1OC1=CC(=O)C(C(C)=O)C(=O)C12C` (stereo not drawn) [usnic acid], in assay [1], the inhibition at 100 µM came out at 21.5%.
